In ChEMBL document CHEMBL2073983, “Characterization of the mouse bile salt export pump overexpressed in the baculovirus system” (Hepatology, 2001):

What was measured:
Format in all cases: functional, cell membranes, Membrane vesicle
[1] = target: T1, Bile salt export pump (Bsep) (Mus musculus, UniProt Q9QY30); test: TP_TRANSPORTER: inhibition of Taurochenodeoxycholate-stimulated ATPase activity (Glibenclamide: 60 uM) in membrane vesicles from Bsep-expressing Sf9 cells; design: scale not given: the % may be the effect or the level left; conditions: probe Taurochenodeoxycholate, read-out: Activity
T1 sequence (Q9QY30 whole entry): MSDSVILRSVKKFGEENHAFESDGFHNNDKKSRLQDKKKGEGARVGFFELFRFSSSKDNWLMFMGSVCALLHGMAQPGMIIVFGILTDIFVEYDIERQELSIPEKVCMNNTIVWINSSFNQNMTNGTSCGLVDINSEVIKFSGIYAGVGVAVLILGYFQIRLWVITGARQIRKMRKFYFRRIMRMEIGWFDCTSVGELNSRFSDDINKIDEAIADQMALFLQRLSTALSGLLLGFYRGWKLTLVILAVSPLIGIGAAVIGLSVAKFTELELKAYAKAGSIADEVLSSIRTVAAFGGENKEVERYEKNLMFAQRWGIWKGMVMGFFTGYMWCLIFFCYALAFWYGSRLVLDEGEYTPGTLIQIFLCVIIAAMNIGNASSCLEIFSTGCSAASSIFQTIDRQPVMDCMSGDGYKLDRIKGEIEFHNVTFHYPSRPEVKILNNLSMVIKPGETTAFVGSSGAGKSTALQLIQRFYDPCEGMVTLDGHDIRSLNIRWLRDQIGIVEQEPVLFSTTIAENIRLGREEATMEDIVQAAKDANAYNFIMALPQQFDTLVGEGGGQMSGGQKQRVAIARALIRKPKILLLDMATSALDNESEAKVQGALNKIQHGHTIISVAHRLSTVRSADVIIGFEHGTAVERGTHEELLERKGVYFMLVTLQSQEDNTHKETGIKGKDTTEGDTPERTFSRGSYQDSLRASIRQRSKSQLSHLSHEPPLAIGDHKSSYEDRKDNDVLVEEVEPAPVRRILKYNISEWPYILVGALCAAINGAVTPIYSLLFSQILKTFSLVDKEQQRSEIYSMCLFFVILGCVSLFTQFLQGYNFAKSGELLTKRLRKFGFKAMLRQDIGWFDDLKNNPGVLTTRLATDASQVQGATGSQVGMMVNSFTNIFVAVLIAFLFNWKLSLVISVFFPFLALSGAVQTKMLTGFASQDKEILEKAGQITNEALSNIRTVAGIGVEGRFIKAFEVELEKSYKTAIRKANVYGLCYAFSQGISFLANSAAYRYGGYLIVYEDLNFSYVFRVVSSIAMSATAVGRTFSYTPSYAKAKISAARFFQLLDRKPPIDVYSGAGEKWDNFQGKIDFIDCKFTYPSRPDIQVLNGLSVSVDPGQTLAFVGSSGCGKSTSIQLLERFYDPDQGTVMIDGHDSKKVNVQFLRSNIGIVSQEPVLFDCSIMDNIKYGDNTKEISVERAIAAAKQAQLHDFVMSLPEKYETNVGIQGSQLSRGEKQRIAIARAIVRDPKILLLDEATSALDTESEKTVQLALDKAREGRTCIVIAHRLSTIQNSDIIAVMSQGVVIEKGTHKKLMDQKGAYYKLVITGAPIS

[2] = target: T1, Bile salt export pump (Bsep); test: TP_TRANSPORTER: inhibition of Taurochenodeoxycholate-stimulated ATPase activity (Rifamycin SV: 100 uM) in membrane vesicles from Bsep-expressing Sf9 cells; design: scale not given: the % may be the effect or the level left; conditions: probe Taurochenodeoxycholate, read-out: Activity
[3] = substrate: C[C@H](CCC(=O)NCCS(=O)(=O)O)[C@H]1CC[C@H]2[C@@H]3[C@H](O)C[C@@H]4C[C@H](O)CC[C@]4(C)[C@H]3CC[C@]12C; test: TP_TRANSPORTER: uptake in membrane vesicles isolated from Bsep-expressing Sf9 cells
[4] = substrate: C[C@H](CCC(=O)NCC(=O)O)[C@H]1CC[C@H]2[C@@H]3[C@H](O)C[C@@H]4C[C@H](O)CC[C@]4(C)[C@H]3C[C@H](O)[C@]12C; test: TP_TRANSPORTER: uptake in membrane vesicles from Bsep-expressing Sf9 cells

COc1ccc(Cl)cc1C(=O)NCCc1ccc(S(=O)(=O)NC(=O)NC2CCCCC2)cc1 [GLYBURIDE]
activity at 60 µM [1]: 47.2%

CO[C@H]1/C=C/O[C@@]2(C)Oc3c(C)c(O)c4c(O)c(cc(O)c4c3C2=O)NC(=O)/C(C)=C\C=C\[C@H](C)[C@H](O)[C@@H](C)[C@@H](O)[C@@H](C)[C@H](OC(C)=O)[C@@H]1C [RIFAMYCIN]
activity at 100 µM [2]: 29.8%

B1: Bile salt export pump (Mus musculus) (protein)
chain: MSDSVILRSVKKFGEENHAFESDGFHNNDKKSRLQDKKKGEGARVGFFELFRFSSSKDNWLMFMGSVCALLHGMAQPGMIIVFGILTDIFVEYDIERQELSIPEKVCMNNTIVWINSSFNQNMTNGTSCGLVDINSEVIKFSGIYAGVGVAVLILGYFQIRLWVITGARQIRKMRKFYFRRIMRMEIGWFDCTSVGELNSRFSDDINKIDEAIADQMALFLQRLSTALSGLLLGFYRGWKLTLVILAVSPLIGIGAAVIGLSVAKFTELELKAYAKAGSIADEVLSSIRTVAAFGGENKEVERYEKNLMFAQRWGIWKGMVMGFFTGYMWCLIFFCYALAFWYGSRLVLDEGEYTPGTLIQIFLCVIIAAMNIGNASSCLEIFSTGCSAASSIFQTIDRQPVMDCMSGDGYKLDRIKGEIEFHNVTFHYPSRPEVKILNNLSMVIKPGETTAFVGSSGAGKSTALQLIQRFYDPCEGMVTLDGHDIRSLNIRWLRDQIGIVEQEPVLFSTTIAENIRLGREEATMEDIVQAAKDANAYNFIMALPQQFDTLVGEGGGQMSGGQKQRVAIARALIRKPKILLLDMATSALDNESEAKVQGALNKIQHGHTIISVAHRLSTVRSADVIIGFEHGTAVERGTHEELLERKGVYFMLVTLQSQEDNTHKETGIKGKDTTEGDTPERTFSRGSYQDSLRASIRQRSKSQLSHLSHEPPLAIGDHKSSYEDRKDNDVLVEEVEPAPVRRILKYNISEWPYILVGALCAAINGAVTPIYSLLFSQILKTFSLVDKEQQRSEIYSMCLFFVILGCVSLFTQFLQGYNFAKSGELLTKRLRKFGFKAMLRQDIGWFDDLKNNPGVLTTRLATDASQVQGATGSQVGMMVNSFTNIFVAVLIAFLFNWKLSLVISVFFPFLALSGAVQTKMLTGFASQDKEILEKAGQITNEALSNIRTVAGIGVEGRFIKAFEVELEKSYKTAIRKANVYGLCYAFSQGISFLANSAAYRYGGYLIVYEDLNFSYVFRVVSSIAMSATAVGRTFSYTPSYAKAKISAARFFQLLDRKPPIDVYSGAGEKWDNFQGKIDFIDCKFTYPSRPDIQVLNGLSVSVDPGQTLAFVGSSGCGKSTSIQLLERFYDPDQGTVMIDGHDSKKVNVQFLRSNIGIVSQEPVLFDCSIMDNIKYGDNTKEISVERAIAAAKQAQLHDFVMSLPEKYETNVGIQGSQLSRGEKQRIAIARAIVRDPKILLLDEATSALDTESEKTVQLALDKAREGRTCIVIAHRLSTIQNSDIIAVMSQGVVIEKGTHKKLMDQKGAYYKLVITGAPIS
Km [3]: 5.7 µM | Km [4]: 19.5 µM
